The source made the active and inactive calls.
Experiments:
[1] = molecular target: T1, Zinc finger protein mex-5 (Caenorhabditis elegans, UniProt Q9XUB2); assay: potency of MEX-5 RNA-binding blockers – biochemical, C. elegans, fluorescence polarization, dose response (AID 1960)
T1 sequence (Q9XUB2 whole entry): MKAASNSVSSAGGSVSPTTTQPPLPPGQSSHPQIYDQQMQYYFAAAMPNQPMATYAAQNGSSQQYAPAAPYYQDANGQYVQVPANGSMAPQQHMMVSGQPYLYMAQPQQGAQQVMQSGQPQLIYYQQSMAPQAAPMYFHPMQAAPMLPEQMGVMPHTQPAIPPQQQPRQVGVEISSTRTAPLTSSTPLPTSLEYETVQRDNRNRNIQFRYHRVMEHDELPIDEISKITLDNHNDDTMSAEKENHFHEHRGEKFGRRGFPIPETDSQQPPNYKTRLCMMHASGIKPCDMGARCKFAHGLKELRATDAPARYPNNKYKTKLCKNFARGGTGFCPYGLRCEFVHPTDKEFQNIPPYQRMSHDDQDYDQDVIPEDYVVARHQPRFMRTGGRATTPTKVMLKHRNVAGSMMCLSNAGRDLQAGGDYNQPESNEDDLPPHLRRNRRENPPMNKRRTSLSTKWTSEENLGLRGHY

Beta-lactamase [2] = molecular target: Beta-lactamase (Salmonella choleraesuis (strain SC-B67), UniProt Q5J463)
Beta-lactamase (Salmonella choleraesuis (strain SC-B67), UniProt Q5J463), sequence (Q5J463 whole entry): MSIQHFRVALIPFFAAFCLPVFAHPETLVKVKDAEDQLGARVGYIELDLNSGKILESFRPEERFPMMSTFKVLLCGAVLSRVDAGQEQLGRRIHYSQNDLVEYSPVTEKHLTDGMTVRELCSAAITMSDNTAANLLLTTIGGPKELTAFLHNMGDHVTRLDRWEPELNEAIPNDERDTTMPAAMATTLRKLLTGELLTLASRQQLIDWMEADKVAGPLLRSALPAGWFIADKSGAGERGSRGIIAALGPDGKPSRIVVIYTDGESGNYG

[3] = molecular target: T2, Apoptotic protease-activating factor 1 (Homo sapiens, UniProt O14727); type: functional
T2 sequence (O14727 whole entry): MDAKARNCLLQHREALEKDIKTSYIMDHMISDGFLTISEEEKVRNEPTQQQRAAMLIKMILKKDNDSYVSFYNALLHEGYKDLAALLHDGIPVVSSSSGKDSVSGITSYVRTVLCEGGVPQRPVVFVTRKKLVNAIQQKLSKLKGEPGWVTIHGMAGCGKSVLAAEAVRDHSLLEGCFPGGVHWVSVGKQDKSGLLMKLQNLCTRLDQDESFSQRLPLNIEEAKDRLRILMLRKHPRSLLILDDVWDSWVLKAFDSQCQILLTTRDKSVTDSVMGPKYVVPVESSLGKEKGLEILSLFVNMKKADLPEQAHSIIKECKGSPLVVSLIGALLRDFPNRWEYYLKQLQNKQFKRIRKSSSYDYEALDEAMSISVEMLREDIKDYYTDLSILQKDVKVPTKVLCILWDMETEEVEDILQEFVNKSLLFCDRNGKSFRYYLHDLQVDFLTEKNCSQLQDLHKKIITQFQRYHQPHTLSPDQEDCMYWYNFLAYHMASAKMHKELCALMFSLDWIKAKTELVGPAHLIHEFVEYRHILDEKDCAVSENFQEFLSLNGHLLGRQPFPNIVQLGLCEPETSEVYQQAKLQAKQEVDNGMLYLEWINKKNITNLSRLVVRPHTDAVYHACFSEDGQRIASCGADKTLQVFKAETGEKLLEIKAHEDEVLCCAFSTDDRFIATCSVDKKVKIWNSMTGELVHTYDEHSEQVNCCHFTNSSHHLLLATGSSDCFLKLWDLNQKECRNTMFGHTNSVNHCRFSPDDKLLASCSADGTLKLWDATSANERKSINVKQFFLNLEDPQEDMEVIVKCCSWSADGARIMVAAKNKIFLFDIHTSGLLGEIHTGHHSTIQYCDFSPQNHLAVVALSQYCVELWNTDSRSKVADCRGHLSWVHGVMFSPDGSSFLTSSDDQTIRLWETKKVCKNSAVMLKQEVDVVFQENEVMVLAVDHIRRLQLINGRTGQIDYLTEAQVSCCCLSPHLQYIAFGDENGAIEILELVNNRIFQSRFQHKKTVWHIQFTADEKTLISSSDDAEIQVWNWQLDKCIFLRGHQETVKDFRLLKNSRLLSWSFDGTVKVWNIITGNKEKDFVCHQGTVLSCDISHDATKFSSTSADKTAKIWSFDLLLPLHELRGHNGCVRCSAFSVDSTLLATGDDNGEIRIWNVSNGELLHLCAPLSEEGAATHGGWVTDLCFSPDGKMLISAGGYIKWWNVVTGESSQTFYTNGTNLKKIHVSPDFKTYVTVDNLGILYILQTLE

[4] = molecular target: T3, RNA-binding protein pos-1 (Caenorhabditis elegans, UniProt G5EF15); assay: disruptors of C. elegans POS-1 RNA interaction – biochemical, fluorescence polarization, dose response (AID 1964);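 further: purified POS-1 fused to maltose binding protein made in E. coli; potency of compounds blocking POS-1 binding to fluorescent RNA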
T3 sequence (G5EF15 whole entry): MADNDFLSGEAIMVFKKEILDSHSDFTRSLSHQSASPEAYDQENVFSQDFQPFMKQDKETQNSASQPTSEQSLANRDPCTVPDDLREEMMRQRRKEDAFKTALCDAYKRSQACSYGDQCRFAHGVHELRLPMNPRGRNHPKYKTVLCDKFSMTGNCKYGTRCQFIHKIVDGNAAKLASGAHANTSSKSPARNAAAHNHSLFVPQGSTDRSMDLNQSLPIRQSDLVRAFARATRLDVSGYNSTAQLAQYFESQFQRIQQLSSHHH

Beta-lactamase [5] = molecular target: Beta-lactamase (Pseudomonas aeruginosa, UniProt Q79MP6);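 further: biochemical dose-response test of metallo-beta-lactamase enzyme inhibition, read out by epi-absorbance; purified recombinant IMP-1 metallo-beta-lactamase with nitrocefin as substrate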
Beta-lactamase (Pseudomonas aeruginosa, UniProt Q79MP6), sequence (Q79MP6 whole entry): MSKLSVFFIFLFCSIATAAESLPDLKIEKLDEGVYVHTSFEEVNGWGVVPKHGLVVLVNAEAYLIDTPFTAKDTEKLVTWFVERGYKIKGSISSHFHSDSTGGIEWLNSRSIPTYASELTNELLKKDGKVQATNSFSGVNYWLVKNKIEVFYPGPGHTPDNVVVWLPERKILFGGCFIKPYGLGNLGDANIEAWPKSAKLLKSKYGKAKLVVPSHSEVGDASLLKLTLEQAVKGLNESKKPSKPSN

[6] = molecular target: Induced myeloid leukemia cell differentiation protein Mcl-1 (Homo sapiens, UniProt Q07820); type: functional
[7] = molecular target: T4, Low molecular weight phosphotyrosine protein phosphatase (Homo sapiens, UniProt P24666); type: functional; conditions: read-out: IC50_Mean;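 further: Dose-response confirmation assay measuring inhibition of LMPTP enzyme activity by fluorescence intensity read-out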
T4 sequence (P24666 whole entry): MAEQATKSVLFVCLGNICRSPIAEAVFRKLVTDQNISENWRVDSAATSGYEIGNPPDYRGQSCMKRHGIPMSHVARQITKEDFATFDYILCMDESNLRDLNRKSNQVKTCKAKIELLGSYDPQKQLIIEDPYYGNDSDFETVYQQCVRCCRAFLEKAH

[8] = molecular target: T5, Sentrin-specific protease 8 (Homo sapiens, UniProt Q96LD8); type: functional
T5 sequence (Q96LD8 whole entry): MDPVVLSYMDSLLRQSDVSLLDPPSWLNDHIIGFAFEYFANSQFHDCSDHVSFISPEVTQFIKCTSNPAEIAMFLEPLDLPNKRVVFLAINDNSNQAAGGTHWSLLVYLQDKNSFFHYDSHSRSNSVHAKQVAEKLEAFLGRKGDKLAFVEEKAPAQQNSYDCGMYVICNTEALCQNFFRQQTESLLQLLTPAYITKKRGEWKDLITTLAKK

[9] = molecular target: T5, Sentrin-specific protease 8; type: functional; remark: listed apart in the source
[10] = blockers of CRF-binding protein–CRF-R2 complex – cell-based, uHTS hits, 384-well, dose response (AID 651639); type: functional, Homo sapiens; conditions: read-out: IC50_Mean
[11] = molecular target: T6, Corticotropin-releasing factor receptor 2/Corticotropin-releasing factor-binding protein (Homo sapiens, UniProt P24387+Q13324); assay: activators of CRF receptor 2 with binding protein – uHTS hits, confirmation (AID 602473); type: functional; conditions: read-out: EC50_Mean
T6 sequence (Q13324 whole entry): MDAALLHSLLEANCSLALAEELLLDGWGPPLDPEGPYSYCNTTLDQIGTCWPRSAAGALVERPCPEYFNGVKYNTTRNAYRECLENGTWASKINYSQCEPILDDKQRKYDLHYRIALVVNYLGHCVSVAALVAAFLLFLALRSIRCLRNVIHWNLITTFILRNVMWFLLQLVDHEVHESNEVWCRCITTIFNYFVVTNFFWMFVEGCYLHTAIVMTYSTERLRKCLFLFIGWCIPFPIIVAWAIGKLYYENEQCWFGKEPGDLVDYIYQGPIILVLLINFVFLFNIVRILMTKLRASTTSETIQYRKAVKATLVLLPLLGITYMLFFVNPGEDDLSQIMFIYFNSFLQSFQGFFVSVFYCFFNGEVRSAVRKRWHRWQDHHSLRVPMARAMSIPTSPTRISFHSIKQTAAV
T6 sequence (P24387 whole entry): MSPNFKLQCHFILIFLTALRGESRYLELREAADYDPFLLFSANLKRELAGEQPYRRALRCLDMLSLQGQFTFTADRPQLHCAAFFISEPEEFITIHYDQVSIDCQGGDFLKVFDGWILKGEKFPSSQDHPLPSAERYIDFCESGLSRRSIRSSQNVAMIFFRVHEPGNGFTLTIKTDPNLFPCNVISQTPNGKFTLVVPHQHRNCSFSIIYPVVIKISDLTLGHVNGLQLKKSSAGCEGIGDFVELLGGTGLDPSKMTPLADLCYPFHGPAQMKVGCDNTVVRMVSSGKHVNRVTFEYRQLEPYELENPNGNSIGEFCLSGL

[12] = Luminescence Cell-Based Dose Retest to Confirm Inhibitors of Cancer Stem Cells. [Related pubchem assays (depositor defined):AID2717, AID2721]; type: functional; conditions: Homo sapiens
[13] = molecular target: T6, Corticotropin-releasing factor receptor 2/Corticotropin-releasing factor-binding protein; assay: Dose Response confirmation of uHTS hits for small molecule antagonists of the CRF-binding protein and CRF-R2 receptor complex.; type: functional; conditions: read-out: IC50_Mean
[14] = molecular target: T7, Voltage-gated N-type calcium channel alpha-1B subunit/Amyloid beta A4 precursor protein-binding family A member 1 (Homo sapiens, UniProt Q00975+Q02410); type: protein assay
T7 sequence (Q00975 whole entry): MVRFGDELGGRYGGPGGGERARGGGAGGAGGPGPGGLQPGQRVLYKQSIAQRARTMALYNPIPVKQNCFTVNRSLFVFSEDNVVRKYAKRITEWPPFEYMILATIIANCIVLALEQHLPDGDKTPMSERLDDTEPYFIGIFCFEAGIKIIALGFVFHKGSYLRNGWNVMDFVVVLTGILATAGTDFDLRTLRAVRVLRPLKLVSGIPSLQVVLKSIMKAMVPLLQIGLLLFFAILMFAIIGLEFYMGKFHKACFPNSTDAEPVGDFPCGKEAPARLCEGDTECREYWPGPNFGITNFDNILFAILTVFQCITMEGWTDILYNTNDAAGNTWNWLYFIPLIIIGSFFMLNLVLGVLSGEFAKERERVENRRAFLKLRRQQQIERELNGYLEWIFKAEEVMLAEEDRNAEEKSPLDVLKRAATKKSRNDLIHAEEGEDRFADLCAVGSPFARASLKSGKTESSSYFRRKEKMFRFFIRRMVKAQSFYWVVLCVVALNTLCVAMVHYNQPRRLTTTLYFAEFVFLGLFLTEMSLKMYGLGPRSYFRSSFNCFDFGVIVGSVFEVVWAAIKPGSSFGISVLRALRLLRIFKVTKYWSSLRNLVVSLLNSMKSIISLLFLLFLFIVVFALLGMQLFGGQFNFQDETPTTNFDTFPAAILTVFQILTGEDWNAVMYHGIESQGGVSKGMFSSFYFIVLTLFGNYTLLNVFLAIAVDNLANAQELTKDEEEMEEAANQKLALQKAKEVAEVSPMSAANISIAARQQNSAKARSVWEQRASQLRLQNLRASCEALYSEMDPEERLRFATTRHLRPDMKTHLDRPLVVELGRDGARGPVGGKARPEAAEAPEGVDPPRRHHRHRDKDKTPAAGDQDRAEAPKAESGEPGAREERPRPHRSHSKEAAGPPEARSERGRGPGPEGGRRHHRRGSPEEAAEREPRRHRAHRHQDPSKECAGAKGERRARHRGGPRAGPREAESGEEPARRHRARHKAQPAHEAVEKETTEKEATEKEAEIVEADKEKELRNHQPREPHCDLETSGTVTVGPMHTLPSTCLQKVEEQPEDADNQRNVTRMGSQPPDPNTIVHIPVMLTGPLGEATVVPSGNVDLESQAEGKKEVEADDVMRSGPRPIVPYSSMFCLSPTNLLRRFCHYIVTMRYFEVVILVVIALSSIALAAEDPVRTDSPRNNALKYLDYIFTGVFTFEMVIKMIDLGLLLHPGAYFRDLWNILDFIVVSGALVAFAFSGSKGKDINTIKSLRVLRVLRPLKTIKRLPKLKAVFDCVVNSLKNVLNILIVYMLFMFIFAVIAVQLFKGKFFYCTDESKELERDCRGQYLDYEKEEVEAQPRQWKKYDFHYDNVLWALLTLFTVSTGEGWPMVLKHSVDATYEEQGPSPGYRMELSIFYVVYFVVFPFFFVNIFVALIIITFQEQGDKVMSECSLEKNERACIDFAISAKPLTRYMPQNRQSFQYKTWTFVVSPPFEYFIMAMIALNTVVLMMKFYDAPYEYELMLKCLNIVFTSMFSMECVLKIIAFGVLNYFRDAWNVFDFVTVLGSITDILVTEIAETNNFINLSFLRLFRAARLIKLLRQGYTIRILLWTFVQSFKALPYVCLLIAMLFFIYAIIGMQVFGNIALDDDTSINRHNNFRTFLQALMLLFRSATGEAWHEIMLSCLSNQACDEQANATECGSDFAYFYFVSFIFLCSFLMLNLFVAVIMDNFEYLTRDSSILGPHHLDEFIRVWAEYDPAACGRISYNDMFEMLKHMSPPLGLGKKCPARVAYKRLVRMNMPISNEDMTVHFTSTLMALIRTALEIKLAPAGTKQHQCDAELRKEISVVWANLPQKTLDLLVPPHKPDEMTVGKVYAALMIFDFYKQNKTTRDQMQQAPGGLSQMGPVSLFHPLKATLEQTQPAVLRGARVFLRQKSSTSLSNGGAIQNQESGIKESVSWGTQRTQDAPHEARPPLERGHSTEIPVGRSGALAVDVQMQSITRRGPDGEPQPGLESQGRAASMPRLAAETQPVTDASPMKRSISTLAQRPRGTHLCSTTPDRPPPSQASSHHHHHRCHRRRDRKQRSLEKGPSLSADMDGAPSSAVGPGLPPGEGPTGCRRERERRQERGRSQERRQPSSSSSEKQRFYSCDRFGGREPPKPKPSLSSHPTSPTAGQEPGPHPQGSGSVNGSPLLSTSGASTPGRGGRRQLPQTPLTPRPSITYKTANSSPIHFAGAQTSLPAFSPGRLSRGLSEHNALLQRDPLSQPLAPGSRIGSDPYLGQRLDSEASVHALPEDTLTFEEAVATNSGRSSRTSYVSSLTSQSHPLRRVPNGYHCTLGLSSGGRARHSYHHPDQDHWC
T7 sequence (Q02410 whole entry): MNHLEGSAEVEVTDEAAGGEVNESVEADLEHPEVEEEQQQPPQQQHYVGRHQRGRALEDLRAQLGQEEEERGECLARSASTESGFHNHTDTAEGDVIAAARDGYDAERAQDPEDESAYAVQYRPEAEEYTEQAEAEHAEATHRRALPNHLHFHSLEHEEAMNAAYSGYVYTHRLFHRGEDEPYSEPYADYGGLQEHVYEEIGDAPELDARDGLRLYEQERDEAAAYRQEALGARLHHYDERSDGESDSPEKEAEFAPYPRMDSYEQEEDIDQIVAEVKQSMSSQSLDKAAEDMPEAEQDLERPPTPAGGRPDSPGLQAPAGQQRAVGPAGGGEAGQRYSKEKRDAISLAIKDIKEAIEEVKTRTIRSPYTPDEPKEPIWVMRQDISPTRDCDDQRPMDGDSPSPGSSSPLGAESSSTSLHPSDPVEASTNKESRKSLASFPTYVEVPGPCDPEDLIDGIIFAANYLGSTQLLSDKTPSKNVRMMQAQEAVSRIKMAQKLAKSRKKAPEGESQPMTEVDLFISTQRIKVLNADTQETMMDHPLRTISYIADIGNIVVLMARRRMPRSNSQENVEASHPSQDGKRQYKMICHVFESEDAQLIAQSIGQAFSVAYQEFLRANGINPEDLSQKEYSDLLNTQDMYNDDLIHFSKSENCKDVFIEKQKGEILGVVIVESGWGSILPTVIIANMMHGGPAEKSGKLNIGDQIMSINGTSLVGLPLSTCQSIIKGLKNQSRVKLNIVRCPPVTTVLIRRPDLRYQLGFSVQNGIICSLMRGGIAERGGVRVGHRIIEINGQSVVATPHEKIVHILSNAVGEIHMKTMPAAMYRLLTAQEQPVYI

Prothrombin = Prothrombin (Bos taurus, UniProt P00735); assay: thrombin protease inhibitors – biochemical, fluorescence polarization, uHTS hits, dose response (AID 602369); type: functional
[15] = molecular target: T7, Voltage-gated N-type calcium channel alpha-1B subunit/Amyloid beta A4 precursor protein-binding family A member 1; type: protein assay; remark: listed apart in the source
[16] = molecular target: 72 kDa type IV collagenase (Homo sapiens, UniProt P08253); assay: Dose Response validation of uHTS RPN11 inhibitor hits using a MMP-2 Fluorescence assay.; type: functional
[17] = molecular target: Arf-GAP with SH3 domain, ANK repeat and PH domain-containing protein 1 (Homo sapiens, UniProt Q9ULH1); type: functional;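 further: biochemical fluorescence polarization dose–response screen measuring inhibition of ASAP1; ASAP1 GAP domain stimulating GTP hydrolysis by truncated human ARF1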
Arf-GAP with SH3 domain, ANK repeat and PH domain-containing protein 1, sequence (Q9ULH1 whole entry, the tested form may be a part): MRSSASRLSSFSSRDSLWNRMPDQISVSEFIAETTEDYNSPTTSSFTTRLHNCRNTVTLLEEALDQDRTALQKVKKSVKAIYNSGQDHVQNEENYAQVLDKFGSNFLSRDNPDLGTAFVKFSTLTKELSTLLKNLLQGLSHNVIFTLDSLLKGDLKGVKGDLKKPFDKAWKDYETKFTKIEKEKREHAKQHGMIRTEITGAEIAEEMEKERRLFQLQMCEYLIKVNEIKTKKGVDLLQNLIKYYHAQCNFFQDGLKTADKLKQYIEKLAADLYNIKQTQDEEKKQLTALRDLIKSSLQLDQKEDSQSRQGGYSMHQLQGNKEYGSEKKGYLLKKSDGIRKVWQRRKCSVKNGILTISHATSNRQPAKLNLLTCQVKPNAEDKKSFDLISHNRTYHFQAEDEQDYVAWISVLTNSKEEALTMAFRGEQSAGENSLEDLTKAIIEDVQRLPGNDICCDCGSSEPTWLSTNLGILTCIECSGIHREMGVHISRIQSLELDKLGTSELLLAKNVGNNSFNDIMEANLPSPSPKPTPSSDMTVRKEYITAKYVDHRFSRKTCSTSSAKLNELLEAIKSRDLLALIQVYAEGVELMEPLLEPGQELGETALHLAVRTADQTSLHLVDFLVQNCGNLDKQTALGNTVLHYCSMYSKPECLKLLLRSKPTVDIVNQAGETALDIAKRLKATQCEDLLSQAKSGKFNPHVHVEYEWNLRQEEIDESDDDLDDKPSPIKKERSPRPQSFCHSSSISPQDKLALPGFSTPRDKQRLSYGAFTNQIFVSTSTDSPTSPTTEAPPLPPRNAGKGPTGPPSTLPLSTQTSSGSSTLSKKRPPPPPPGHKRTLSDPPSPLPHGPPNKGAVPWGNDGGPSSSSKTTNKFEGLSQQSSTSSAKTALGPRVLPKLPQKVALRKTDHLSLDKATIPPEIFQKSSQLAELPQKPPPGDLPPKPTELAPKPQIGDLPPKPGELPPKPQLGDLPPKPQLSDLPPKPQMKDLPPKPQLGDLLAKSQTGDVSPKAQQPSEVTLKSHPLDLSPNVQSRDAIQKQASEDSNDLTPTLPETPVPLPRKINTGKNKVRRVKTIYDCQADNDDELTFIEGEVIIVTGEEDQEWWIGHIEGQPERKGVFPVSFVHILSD

[18] = molecular target: 26S proteasome non-ATPase regulatory subunit 14 (Homo sapiens, UniProt O00487); assay: inhibition of proteasome subunit RPN11 – biochemical, fluorescence polarization, uHTS hits, confirmation (AID 602368); type: functional
[19] = molecular target: T8, Carboxy-terminal domain RNA polymerase II polypeptide A small phosphatase 1 (Homo sapiens, UniProt Q9GZU7); assay: CTDSP1 inhibitors, concentration-response, biochemical, absorbance readout, ultra-high-throughput screen actives (AID 540297); type: functional
T8 sequence (Q9GZU7 whole entry): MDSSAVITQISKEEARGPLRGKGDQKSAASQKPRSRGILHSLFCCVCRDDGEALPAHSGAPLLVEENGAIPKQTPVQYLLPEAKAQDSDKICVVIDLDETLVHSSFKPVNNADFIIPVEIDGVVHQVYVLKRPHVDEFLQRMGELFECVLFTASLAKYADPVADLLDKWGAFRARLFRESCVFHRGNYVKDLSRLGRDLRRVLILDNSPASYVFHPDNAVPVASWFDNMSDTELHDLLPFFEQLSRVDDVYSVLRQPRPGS

[20] = molecular target: T9, Rac GTPase-activating protein 1 (Homo sapiens, UniProt Q9H0H5); assay: blockers of MgcRacGAP-driven Rac1 GTP hydrolysis – biochemical, ADP Hunter fluorescence, primary and confirmatory, confirmation (AID 624330); type: functional
T9 sequence (Q9H0H5 whole entry): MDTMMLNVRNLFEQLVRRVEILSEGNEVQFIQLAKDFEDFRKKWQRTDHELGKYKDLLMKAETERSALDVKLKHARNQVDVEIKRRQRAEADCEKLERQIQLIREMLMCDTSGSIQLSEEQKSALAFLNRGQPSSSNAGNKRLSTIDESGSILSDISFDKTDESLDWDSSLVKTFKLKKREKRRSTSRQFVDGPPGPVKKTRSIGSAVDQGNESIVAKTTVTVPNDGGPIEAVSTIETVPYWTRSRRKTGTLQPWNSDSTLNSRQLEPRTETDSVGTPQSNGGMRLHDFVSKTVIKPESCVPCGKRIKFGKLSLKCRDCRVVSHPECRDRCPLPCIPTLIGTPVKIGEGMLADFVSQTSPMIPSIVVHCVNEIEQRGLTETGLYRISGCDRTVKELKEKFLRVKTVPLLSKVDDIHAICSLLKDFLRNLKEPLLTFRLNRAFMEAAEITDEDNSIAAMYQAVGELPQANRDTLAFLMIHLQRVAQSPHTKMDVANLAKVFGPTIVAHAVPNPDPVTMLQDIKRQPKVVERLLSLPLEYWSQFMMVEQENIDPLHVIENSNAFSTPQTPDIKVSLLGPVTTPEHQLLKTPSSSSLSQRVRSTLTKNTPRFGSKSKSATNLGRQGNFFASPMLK

[21] = viability loss in HeLa cells – cytotoxicity control for MgcRacGAP inhibitor project, dose response (AID 624300); type: functional
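Wherever AC50 is given: cells exposed to compound for roughly 70 hours or longer before luminescence read.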

Compound: O=Cc1ccc2cccc3c2c1NC(C(F)(F)F)=N3
- EC50 [1]: 24.8 µM (active)
- IC50 (Beta-lactamase [2]): 27.9 µM (inactive)
- IC50 [3]: 9.2 µM (active)
- EC50 [4]: 27.6 µM (active)
- IC50 (Beta-lactamase [5]): 32.6 µM (inactive)

Compound: Nc1ccc(Cc2ccc(N)c(O)c2)cc1O
- IC50 [6]: > 54 µM (active)
- IC50 [7]: 26.7 µM (inactive)
- IC50 [8]: 27 µM (active)
- IC50 [9]: > 100 µM (inactive)

Compound: N#Cc1c(O)nc(SCc2cccc(Cl)c2)nc1-c1ccccc1
- IC50 [10]: > 20 µM (inactive)
- EC50 [11]: > 53 µM (inactive)
- AC50 [12]: 4.86 µM (active)
- IC50 [13]: < 368 nM (active)

Compound: O=c1c([N+](=O)[O-])c(NC2CCCCC2)c2ccccc2n1-c1ccccc1
- IC50 [10]: > 20 µM (inactive)
- EC50 [11]: > 53 µM (inactive)
- IC50 [13]: 4330 nM (active)

Compound: O=P(O)(O)c1cc(-c2ccccc2)oc1-c1ccccc1
- IC50 (Beta-lactamase [2]): > 59.6 µM (inactive)
- IC50 (Beta-lactamase [5]): 22.5 µM (inactive)

Compound: COC(=O)c1ccc(NC(=O)c2ccc(NC(=O)c3ccco3)cc2)cc1
- IC50 [14]: 5.25 µM (active)
- IC50 (Prothrombin): 73 µM (active)
- IC50 [15]: > 50 µM (inactive)
- IC50 [16]: > 100 µM (inactive)
- IC50 [17]: 25.8 µM (inactive)
- IC50 [18]: 23 µM (active)

Compound: Cc1ccc(C(=O)Nc2cccc(NC(=O)c3ccc(C)c([N+](=O)[O-])c3)n2)cc1[N+](=O)[O-]
- IC50 [19]: 4.55 µM (active)
- IC50 [17]: 41.9 µM (inactive)

Compound: C=CCc1c(C)nc(-c2ccccc2)nc1Nc1ccc(O)cc1
- IC50 [20]: 38.1 µM (active)
- CC50 [21]: 100 µM (active)

Reference: ChEMBL document CHEMBL1201862, “PubChem BioAssay data set” (2004)
